Data published in patent US20180057507A1, “INHIBITORS OF DUAL LEUCINE ZIPPER (DLK) KINASE FOR THE TREATMENT OF DISEASE” (Board of Regents, The University of Texas System, priority 2016, published 2018).

Key:
human DLK [1] = target: T1, human DLK (Homo sapiens, UniProt Q12852); test: DLK Kd Determinations (KINOMEscan KdELECT, DiscoveRx); set-up: full length of human DLK (amino acids 1-859); host or cells: transiently transfected HEK293 cells; unpurified extract; details: fusion protein of full length human DLK (amino acids 1-859) and NFkB DNA binding domain; qPCR readout; duplicate
T1 sequence (Q12852 1-859): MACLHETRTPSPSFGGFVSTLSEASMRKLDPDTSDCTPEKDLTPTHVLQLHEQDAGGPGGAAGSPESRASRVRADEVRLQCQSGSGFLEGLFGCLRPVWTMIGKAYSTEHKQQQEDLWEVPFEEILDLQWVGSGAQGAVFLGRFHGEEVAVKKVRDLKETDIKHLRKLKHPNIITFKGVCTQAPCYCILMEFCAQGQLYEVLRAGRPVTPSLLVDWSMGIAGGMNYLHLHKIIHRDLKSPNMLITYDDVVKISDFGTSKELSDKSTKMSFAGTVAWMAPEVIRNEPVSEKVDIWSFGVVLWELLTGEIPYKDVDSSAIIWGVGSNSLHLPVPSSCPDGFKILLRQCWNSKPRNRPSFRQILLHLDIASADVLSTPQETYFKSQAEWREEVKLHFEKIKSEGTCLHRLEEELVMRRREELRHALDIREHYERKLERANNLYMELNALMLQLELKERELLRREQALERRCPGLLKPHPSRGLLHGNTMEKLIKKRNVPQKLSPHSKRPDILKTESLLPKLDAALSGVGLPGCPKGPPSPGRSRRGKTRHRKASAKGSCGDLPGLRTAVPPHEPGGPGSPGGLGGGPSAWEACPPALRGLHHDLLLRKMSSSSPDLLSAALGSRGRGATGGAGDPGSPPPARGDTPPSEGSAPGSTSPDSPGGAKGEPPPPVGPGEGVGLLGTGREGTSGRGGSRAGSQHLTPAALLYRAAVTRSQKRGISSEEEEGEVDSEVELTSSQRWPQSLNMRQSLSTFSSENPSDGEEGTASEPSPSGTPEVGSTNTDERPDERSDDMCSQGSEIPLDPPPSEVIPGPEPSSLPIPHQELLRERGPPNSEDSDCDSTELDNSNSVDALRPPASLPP
Summary of the method: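 Competition binding of full-length human DLK (aa 1-859)-NFkB DBD fusion, DNA-tagged, from HEK293 extracts against an immobilized ligand; 1 h at room temperature, 0.9% DMSO. Bead-bound kinase was quantified by qPCR. Kd came from an 11-point 3-fold series (top 30,000 nM), in duplicate, with Hill slope fixed at −1.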

human DLK [2] = target: T1, human DLK; test: Phospho-cJun Cellular Assay; assay type: cell-based; set-up: expressed in transfected cells; details: HEK293 cells stably transfected with Dox-inducible human DLK; p-cJun (Ser63); 5 h compound incubation
Summary of the method: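 HEK293 cells with doxycycline-induced human DLK (induced 20 h; uninduced cells as negative control) treated with compound for 5 h at 37 °C. Phospho-cJun (Ser63) measured in lysates with detection-antibody kit; IC50 from variable-slope dose-response fit.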

Row | SMILES | Kd (human DLK [1]) | IC50 (human DLK [2])
1 | COCCN1C[C@@H]2[C@H](C1)[C@H]2n1cc(-c2cnc(N)c(C(F)(F)F)c2)nc1CC(F)(F)F [Example 121, 5-(1-((1R,5S,6s)-3-(2-methoxyethyl)-3-azabicyclo[3.1.0]hexan-6-yl)-2-(2,2,2-trifluoroethyl)-1H-imidazol-4-yl)-3-(trifluoromethyl)pyridin-2-amine] | 49 nM | 1590 nM
2 | CC(C)c1nc(-c2cnc(N)c(OC(F)(F)F)c2)cn1[C@H]1[C@@H]2CC(N3CCOCC3)C[C@@H]21 (single isomer, unassigned) [Example 19a] | 76 nM | 666 nM
3 | CC(C)c1nc(-c2cnc(N)c(C(F)(F)F)c2)cn1[C@H]1[C@@H]2CC(N3CCOCC3)C[C@@H]21 (single isomer, unassigned) [Example 127a] | 52 nM | 939 nM
4 | CN1CCN(C2C[C@@H]3[C@H](C2)[C@H]3n2cc(-c3cnc(N)c(C(F)(F)F)c3)nc2C2CC2)CC1 (single isomer, unassigned) [Example 129b, 5-(2-cyclopropyl-1-(3-(4-methylpiperazin-1-yl)bicyclo[3.1.0]hexan-6-yl)-1H-imidazol-4-yl)-3-(trifluoromethyl)pyridin-2-amine] | 16 nM | 633 nM
5 | Nc1ncc(-c2cn([C@H]3[C@@H]4CN(C5COC5)C[C@@H]43)c(CC3CC3)n2)cc1OC(F)(F)F [Example 92, 5-(2-(cyclopropylmethyl)-1-((1R,5S,6s)-3-(oxetan-3-yl)-3-azabicyclo[3.1.0]hexan-6-yl)-1H-imidazol-4-yl)-3-(trifluoromethoxy)pyridin-2-amine] | 55 nM | 1820 nM
6 | CC(C)Cc1nc(-c2cnc(N)c(OC(F)(F)F)c2)cn1[C@H]1[C@@H]2CC(N3CCN(C)CC3)C[C@@H]21 (stereo partly drawn) [Example 158, 5-(2-isobutyl-1-(3-(4-methylpiperazin-1-yl)bicyclo[3.1.0]hexan-6-yl)-1H-imidazol-4-yl)-3-(trifluoromethoxy)pyridin-2-amine] | 12 nM | 500 nM
7 | CCC(CC)c1nc(-c2cnc(N)c(C(F)(F)F)c2)cn1[C@H]1[C@@H]2CN(CCF)C[C@@H]21 [Example 125, 5-(1-((1R,5S,6s)-3-(2-fluoroethyl)-3-azabicyclo[3.1.0]hexan-6-yl)-2-(pentan-3-yl)-1H-imidazol-4-yl)-3-(trifluoromethyl)pyridin-2-amine] | 120 nM | 1290 nM
8 | Nc1ncc(-c2cn([C@H]3[C@@H]4CC(N5CCN(CCF)CC5)C[C@@H]43)c(C3CC3)n2)cc1OC(F)(F)F (single isomer, unassigned) [Example 154a, 5-(2-cyclopropyl-1-(3-(4-(2-fluoroethyl)piperazin-1-yl)bicyclo[3.1.0]hexan-6-yl)-1H-imidazol-4-yl)-3-(trifluoromethoxy)pyridin-2-amine] | 28 nM | 761 nM
9 | Nc1ncc(-c2cn([C@H]3[C@@H]4CN(CCF)C[C@@H]43)c(C3CC3)n2)cc1OC(F)(F)F [Example 69, 5-(2-cyclopropyl-1-((1R,5S,6s)-3-(2-fluoroethyl)-3-azabicyclo[3.1.0]hexan-6-yl)-1H-imidazol-4-yl)-3-(trifluoromethoxy)pyridin-2-amine] | 45 nM | 2440 nM
10 | CC(C)c1nc(-c2cnc(N)c(OC(F)(F)F)c2)cn1[C@H]1[C@@H]2CC(N3CCCOCC3)C[C@@H]21 (single isomer, unassigned) [Example 20b, 5-(1-(3-(1,4-oxazepan-4-yl)bicyclo[3.1.0]hexan-6-yl)-2-isopropyl-1H-imidazol-4-yl)-3-(trifluoromethoxy)pyridin-2-amine] | 44 nM | 1050 nM
11 | Nc1ncc(-c2cn([C@H]3[C@@H]4CN(CCF)C[C@@H]43)c(C3CC3)n2)cc1C(F)(F)F [Example 95, 5-(2-cyclopropyl-1-((1R,5S,6s)-3-(2-fluoroethyl)-3-azabicyclo[3.1.0]hexan-6-yl)-1H-imidazol-4-yl)-3-(trifluoromethyl)pyridin-2-amine] | 12.3 nM | 1200 nM
12 | CC(C)c1nc(-c2cnc(N)c(C(F)(F)F)c2)cn1C1CC2(C1)CN(C1COC1)C2 [Example 31, 5-(2-isopropyl-1-(2-(oxetan-3-yl)-2-azaspiro[3.3]heptan-6-yl)-1H-imidazol-4-yl)-3-(trifluoromethyl)pyridin-2-amine] | 82 nM | 2150 nM
13 | CC(C)c1nc(-c2cnc(N)c(C(F)(F)F)c2)cn1C1CC1 [Example 6, 5-[1-cyclopropyl-2-(propan-2-yl)-1H-imidazol-4-yl]-3-(trifluoromethyl)pyridin-2-amine] | 130 nM | 3620 nM
14 | CC(C)c1nc(-c2cnc(N)c(OC(F)(F)F)c2)cn1[C@H]1[C@@H]2CC(N3CCOCC3)C[C@@H]21 (single isomer, unassigned) [Example 19b] | 38 nM | 493 nM
15 | CC(C)c1nc(-c2cnc(N)c(OC(F)(F)F)c2)cn1C1CC2(CC(N3CCOCC3)C2)C1 (stereo not drawn) [Example 39, 5-(2-isopropyl-1-(6-morpholinospiro[3.3]heptan-2-yl)-1H-imidazol-4-yl)-3-(trifluoromethoxy)pyridin-2-amine] | 30 nM | 771 nM
16 | Nc1ncc(-c2cn([C@H]3[C@@H]4CC(N5CCOCC5)C[C@@H]43)c(C3CC3)n2)cc1C(F)(F)F (single isomer, unassigned) [Example 128a, 5-(2-cyclopropyl-1-(3-morpholinobicyclo[3.1.0]hexan-6-yl)-1H-imidazol-4-yl)-3-(trifluoromethyl)pyridin-2-amine] | 40 nM | 748 nM
17 | Nc1ncc(-c2cn([C@H]3[C@@H]4CC(N5CCCOCC5)C[C@@H]43)c(C3CC3)n2)cc1C(F)(F)F (single isomer, unassigned) [Example 141b, 5-(1-(3-(1,4-oxazepan-4-yl)bicyclo[3.1.0]hexan-6-yl)-2-cyclopropyl-1H-imidazol-4-yl)-3-(trifluoromethyl)pyridin-2-amine] | 16 nM | 587 nM
18 | CC(C)c1nc(-c2cnc(N)c(OC(F)F)c2)cn1[C@H]1[C@@H]2CC(N3CCN(C)CC3)C[C@@H]21 (single isomer, unassigned) [Example 145a, 3-(difluoromethoxy)-5-(2-isopropyl-1-(3-(4-methylpiperazin-1-yl)bicyclo[3.1.0]hexan-6-yl)-1H-imidazol-4-yl)pyridin-2-amine] | 39 nM | 1200 nM
19 | CC(C)Cc1nc(-c2cnc(N)c(C(F)(F)F)c2)cn1[C@H]1[C@@H]2CC(N3CCN(CCF)CC3)C[C@@H]21 (single isomer, unassigned) [Example 160a, 5-(1-(3-(4-(2-fluoroethyl)piperazin-1-yl)bicyclo[3.1.0]hexan-6-yl)-2-isobutyl-1H-imidazol-4-yl)-3-(trifluoromethyl)pyridin-2-amine] | 13 nM | 738 nM
20 | CC(C)c1nc(-c2cnc(N)c(OC(F)(F)F)c2)cn1[C@H]1[C@@H]2CC(N3CCOC[C@@H]3C)C[C@@H]21 (single isomer, unassigned) [Example 157b] | 22 nM | 827 nM
21 | CC(C)Cc1nc(-c2cnc(N)c(C(F)(F)F)c2)cn1[C@H]1[C@@H]2CC(N3CCN(C)CC3)C[C@@H]21 (single isomer, unassigned) [Example 146a, 5-(2-isobutyl-1-(3-(4-methylpiperazin-1-yl)bicyclo[3.1.0]hexan-6-yl)-1H-imidazol-4-yl)-3-(trifluoromethyl)pyridin-2-amine] | 6.5 nM | 376 nM
